pIC50: −log10 of the molar value.
Test system: 922993-354-T-J3-PDC complex spheroids, viability
Test: Anticancer human tumor 922993-354-T-J3-PDC patient-derived endometrial carcinoma cell line growth inhibition [GQUAD]
Details: for pIC50: curve of first compound; for viability, T/C: stronger effect = lower value
Text: DNA G-quadruplex Stabilizer Agents in Combinations in Complex Spheroids
A high-throughput screen of multi-cell type tumor spheroids was designed to identify active combinations of DNA G-quadruplex stabilizer agents and targeted small molecules. Complex spheroids include a stromal component modeled by human endothelial cells (HUVEC) and fibroblasts modeled by human mesenchymal stem cells (MSCs). The concentration ranges selected for each drug and investigational agent were based upon clinically achievable concentrations if the clinical Cmax of the agent was known.
Compounds. The drugs and investigational agents: pidnarulex (CX-5461; NSC782164), APTO-253 (NSC789042), BRACO-19 (NSC847499), peposertib (NSC802822), ceralasertib (NSC780249), elimusertib (NSC800525), camonsertib (NSC841442), AZD-1390 (NSC803789), olaparib (NSC753686), talazoparib (NSC767125), ART-558 (NSC835418), sotorasib (NSC818433), MRTX-1133 (NSC836407), SN-38 (NSC673596), topotecan (NSC609699), etoposide (NSC141540), doxorubicin (NSC123127), gemcitabine (NSC613327), 5-fluorouracil (NSC19893), paclitaxel (NSC125973), vemurafenib (NSC761431), panobinostat (NSC761190), R-306465 (JNJ-16241199; NSC773264), adavosertib (NSC754352), TP-3654 (NSC805149), carboplatin (NSC241240), KSQ-4279 (NSC840948), and staurosporine (NSC755774) were obtained from the National Cancer Institute (NCI) Developmental Therapeutics Program Chemical Repository (34). The FDA-approved anticancer drug set is available from the NCI Developmental Therapeutics Program. […] The stock solutions were prepared in dimethyl sulfoxide (DMSO, Sigma-Aldrich, St. Louis, MO, cat. D2650) at 800-fold the tested concentration and stored at -70 degrees C prior to their use. All drugs and investigational agents were tested over a range starting from a high concentration at or near the clinical Cmax and decreasing in half-log increments. If the clinical Cmax for an agent had not been determined, the highest concentration tested was 10 microM.
2.3 Cell Culture. All cells were maintained in an incubator at 37 degrees C and 5% CO2 with 95% humidity. The PDC lines were cultured according to standard operating procedures established by the NCI PDMR. All PDCs were thawed and cultured in Matrigel-coated flasks prepared with a working solution of 1X Ham's F-12 nutrient mix, without supplementation (Invitrogen, cat. 11765054), 100 U/mL penicillin-streptomycin (Invitrogen, cat. 15140122), and 2.5% Matrigel (Corning Inc., cat. 354248) for the first three passages. The 857933-349-R-J2-PDC line was cultured in 6C/Colon 1B media, which includes advanced DMEM/F-12 (Thermo Fisher Scientific, cat. 12634028), 10 mM HEPES (Thermo Fisher Scientific, cat. 15630080), 1X GlutaMAX supplement (Thermo Fisher Scientific, cat. 35050061), 0.1 mg/mL primocin (InvivoGen, cat. ant-pm-2), 10% defined fetal bovine serum, heat inactivated (HyClone Laboratories Inc., cat. SH30070.03HI), 50% L-WRN conditioned media (ATCC, cat. CRL-3276), 1.25 mM N-Acetyl-L-cysteine (Sigma-Aldrich, cat. A9165), 10 mM nicotinamide (Sigma-Aldrich, cat. N0636), 1X B-27 supplement (Thermo Fisher Scientific, cat. 17504044), 1X N-2 supplement (Thermo Fisher Scientific, cat. 17502048), 10 microM Y-27632 dihydrochloride (Tocris Bioscience, cat. 1254), and 50 ng/mL human EGF recombinant protein (Thermo Fisher Scientific, cat. PHG0311). The 485176-168-R4-J1-PDC line was cultured in Panc media, which includes all 6C/Colon 1B media components plus 100 ng/mL human FGF-10 (Thermo Fisher Scientific, cat. 100-26), 500 nM SB-431542 (Selleckchem, cat. S1067), and gastrin (Tocris, cat. 3006).
[…]

[1] = second compound 0.0316 µM, first compound 0.0316 µM
[2] = second compound 0.0316 µM, first compound 0.1 µM
[3] = second compound 0.0316 µM, first compound 0.316 µM
[4] = second compound 0.0316 µM, first compound 1 µM
[5] = second compound 0.0316 µM, first compound 3.16 µM
[6] = second compound 0.0316 µM, first compound 10 µM
[7] = second compound 0.1 µM, first compound 0.0316 µM
[8] = second compound 0.1 µM, first compound 0.1 µM
[9] = second compound 0.1 µM, first compound 0.316 µM
[10] = second compound 0.1 µM, first compound 1 µM
[11] = second compound 0.1 µM, first compound 3.16 µM
[12] = second compound 0.1 µM, first compound 10 µM
[13] = second compound 0.316 µM, first compound 0.0316 µM
[14] = second compound 0.316 µM, first compound 0.1 µM
[15] = second compound 0.316 µM, first compound 0.316 µM
[16] = second compound 0.316 µM, first compound 1 µM
[17] = second compound 0.316 µM, first compound 3.16 µM
[18] = second compound 0.316 µM, first compound 10 µM
[19] = second compound 1 µM, first compound 0.0316 µM
[20] = second compound 1 µM, first compound 0.1 µM
[21] = second compound 1 µM, first compound 0.316 µM
[22] = second compound 1 µM, first compound 1 µM
[23] = second compound 1 µM, first compound 3.16 µM
[24] = second compound 1 µM, first compound 10 µM
[25] = second compound 3.16 µM, first compound 0.0316 µM
[26] = second compound 3.16 µM, first compound 0.1 µM
[27] = second compound 3.16 µM, first compound 0.316 µM
[28] = second compound 3.16 µM, first compound 1 µM
[29] = second compound 3.16 µM, first compound 3.16 µM
[30] = second compound 3.16 µM, first compound 10 µM
[31] = second compound 10 µM, first compound 0.0316 µM
[32] = second compound 10 µM, first compound 0.1 µM
[33] = second compound 10 µM, first compound 0.316 µM
[34] = second compound 10 µM, first compound 1 µM
[35] = second compound 10 µM, first compound 3.16 µM
[36] = second compound 10 µM, first compound 10 µM
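Further: spheroids exposed to compounds for seven days.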
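Wherever viability, T/C is given: 100% = DMSO vehicle control viability.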

O=C(c1cc(Cc2n[nH]c(=O)c3ccccc23)ccc1F)N1CCN(C(=O)C2CC2)CC1 + CN(C)c1ccc(Nc2c3ccc(NC(=O)CCN4CCCC4)cc3nc3cc(NC(=O)CCN4CCCC4)ccc23)cc1
pIC50 (second compound 0.0316 µM): < 5.00 | pIC50 (second compound 0.1 µM): < 5.00 | pIC50 (second compound 0.316 µM): < 5.00 | pIC50 (second compound 1 µM): < 5.00 | pIC50 (second compound 3.16 µM): < 5.00 | pIC50 (second compound 10 µM): < 5.00 | viability, T/C [1]: 103% | viability, T/C [2]: 105% | viability, T/C [3]: 94.2% | viability, T/C [4]: 86.5% | viability, T/C [5]: 89.8% | viability, T/C [6]: 106% | viability, T/C [7]: 115% | viability, T/C [8]: 81.9% | viability, T/C [9]: 91.9% | viability, T/C [10]: 86% | viability, T/C [11]: 94.9% | viability, T/C [12]: 106% | viability, T/C [13]: 89.5% | viability, T/C [14]: 84.3% | viability, T/C [15]: 115% | viability, T/C [16]: 87.3% | viability, T/C [17]: 91.2% | viability, T/C [18]: 78.5% | viability, T/C [19]: 83.7% | viability, T/C [20]: 86.5% | viability, T/C [21]: 87.8% | viability, T/C [22]: 74.7% | viability, T/C [23]: 97.5% | viability, T/C [24]: 107% | viability, T/C [25]: 84.2% | viability, T/C [26]: 105% | viability, T/C [27]: 110% | viability, T/C [28]: 75.5% | viability, T/C [29]: 120% | viability, T/C [30]: 93.7% | viability, T/C [31]: 110% | viability, T/C [32]: 128% | viability, T/C [33]: 109% | viability, T/C [34]: 99.4% | viability, T/C [35]: 133% | viability, T/C [36]: 132%

C=CC(=O)N1CCN(c2nc(=O)n(-c3c(C)ccnc3C(C)C)c3nc(-c4c(O)cccc4F)c(F)cc23)C(C)C1 (centres undefined) + Cc1[nH]c2ccc(F)cc2c1-c1nc2c3cccnc3c3ncccc3c2[nH]1
pIC50 (second compound 0.0316 µM): < 5.00 | pIC50 (second compound 0.1 µM): < 5.00 | pIC50 (second compound 0.316 µM): < 5.00 | pIC50 (second compound 1 µM): < 5.00 | pIC50 (second compound 3.16 µM): < 5.00 | pIC50 (second compound 10 µM): < 5.00 | viability, T/C [1]: 94.6% | viability, T/C [2]: 86% | viability, T/C [3]: 94.8% | viability, T/C [4]: 101% | viability, T/C [5]: 111% | viability, T/C [6]: 116% | viability, T/C [7]: 106% | viability, T/C [8]: 69.4% | viability, T/C [9]: 99.3% | viability, T/C [10]: 127% | viability, T/C [11]: 92% | viability, T/C [12]: 98.7% | viability, T/C [13]: 130% | viability, T/C [14]: 95% | viability, T/C [15]: 117% | viability, T/C [16]: 118% | viability, T/C [17]: 114% | viability, T/C [18]: 113% | viability, T/C [19]: 92.9% | viability, T/C [20]: 124% | viability, T/C [21]: 133% | viability, T/C [22]: 112% | viability, T/C [23]: 93.6% | viability, T/C [24]: 107% | viability, T/C [25]: 114% | viability, T/C [26]: 91.2% | viability, T/C [27]: 105% | viability, T/C [28]: 104% | viability, T/C [29]: 96.2% | viability, T/C [30]: 88% | viability, T/C [31]: 88.7% | viability, T/C [32]: 103% | viability, T/C [33]: 81.3% | viability, T/C [34]: 90.7% | viability, T/C [35]: 103% | viability, T/C [36]: 87.1%
